US7598258B2, “Quinoline derivatives and quinazoline derivatives inhibiting autophosphorylation of macrophage colony stimulating factor receptor” (Kirin Beer Kabushiki Kaisha, priority 2002, dated 2009)

Each molecule was assayed against T1, mouse c-fms (Mus musculus, UniProt P09581) (assay: Inhibition of c-fms autophosphorylation in macrophage-like cell line BAC-1.2F5 by M-CSF stimulation (ELISA)). Conditions: BAC-1.2F5 cells, human recombinant M-CSF 50 ng/ml, read-out: c-fms autophosphorylation 50% inhibitory concentration (IC50).
T1 construct: Macrophage-like cell line BAC-1.2F5 which expresses c-fms as a M-CSF receptor on cell membranes; endogenous in cells; host or cells: BAC-1.2F5 mouse macrophage-like cell line
T1 sequence (P09581 20-977): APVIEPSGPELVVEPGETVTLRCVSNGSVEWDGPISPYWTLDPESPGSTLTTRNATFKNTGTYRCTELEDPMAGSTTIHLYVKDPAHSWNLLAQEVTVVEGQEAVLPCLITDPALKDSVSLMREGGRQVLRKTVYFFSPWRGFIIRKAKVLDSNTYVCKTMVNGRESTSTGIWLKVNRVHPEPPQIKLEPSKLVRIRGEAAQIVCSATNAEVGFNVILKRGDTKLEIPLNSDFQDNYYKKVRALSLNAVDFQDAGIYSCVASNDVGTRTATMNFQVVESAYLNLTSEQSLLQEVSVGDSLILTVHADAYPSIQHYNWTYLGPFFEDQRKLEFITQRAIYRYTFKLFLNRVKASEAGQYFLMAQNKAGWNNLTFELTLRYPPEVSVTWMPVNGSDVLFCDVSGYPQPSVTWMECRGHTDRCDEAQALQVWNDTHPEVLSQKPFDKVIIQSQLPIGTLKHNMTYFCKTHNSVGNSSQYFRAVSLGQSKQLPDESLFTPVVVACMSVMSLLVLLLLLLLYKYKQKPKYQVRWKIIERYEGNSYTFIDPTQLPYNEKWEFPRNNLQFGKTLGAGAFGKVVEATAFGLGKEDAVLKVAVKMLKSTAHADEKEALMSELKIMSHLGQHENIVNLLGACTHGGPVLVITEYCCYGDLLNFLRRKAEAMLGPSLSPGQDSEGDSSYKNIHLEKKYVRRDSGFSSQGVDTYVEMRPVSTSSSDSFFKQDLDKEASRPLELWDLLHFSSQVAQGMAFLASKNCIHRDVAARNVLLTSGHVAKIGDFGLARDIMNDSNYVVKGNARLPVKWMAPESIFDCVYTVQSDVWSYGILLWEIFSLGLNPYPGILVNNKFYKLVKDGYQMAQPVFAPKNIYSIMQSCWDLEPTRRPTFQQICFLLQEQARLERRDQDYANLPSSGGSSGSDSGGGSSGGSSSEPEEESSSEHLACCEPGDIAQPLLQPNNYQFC
Format: cell-based
Summary of the method: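 BAC-1.2F5 cells serum-starved (0.1% FCS) 12 h, preincubated with compound 1 h at 37° C, then stimulated 6 min with 50 ng/ml human recombinant M-CSF. Lysates captured on anti-phosphotyrosine plates, detected with anti-c-fms antiserum and peroxidase read-out at 450 nm. IC50 from inhibition normalised between ±M-CSF controls.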

Structure (SMILES) | IC50 [nM]
COc1cc2nccc(Oc3ccc(NC(=O)N[C@H](C)c4cccc(Br)c4)cc3)c2cc1OC [Example 45, N-[(1R)-1-(3-Bromophenyl)ethyl]-N′-{4-[(6,7-dimethoxy-4-quinolyl)oxy]phenyl}urea] | 22.2
COc1cc2nccc(Oc3ccc(NC(=O)N[C@@H](C)c4cccc(Br)c4)cc3)c2cc1OC [Example 46, N-[(1S)-1-(3-Bromophenyl)ethyl]-N′-{4-[(6,7-dimethoxy-4-quinolyl)oxy]phenyl}urea] | 7.3
COc1cccc([C@@H](C)NC(=O)Nc2ccc(Oc3ccnc4cc(OC)c(OC)cc34)cc2)c1 [Example 50, N-{4-[(6,7-Dimethoxy-4-quinolyl)oxy]phenyl}-N′-[(1R)-1-(3-methoxyphenyl)ethyl]urea] | 7.2
COc1cc2nccc(Oc3ccc(NC(=O)N[C@@H](C)c4ccc(C)cc4)cc3)c2cc1OC [Example 41, N-{4-[(6,7-Dimethoxy-4-quinolyl)oxy]phenyl}-N′-[(1S)-1-(4-methylphenyl)ethyl]urea] | 2.8
COc1cc2nccc(Oc3ccc(NC(=O)N[C@H](C)c4ccc(F)cc4)cc3)c2cc1OC [Example 3, N-{4-[(6,7-Dimethoxy-4-quinolyl)oxy]phenyl}-N′-[(1R)-1-(4-fluorophenyl)ethyl]urea] | 2.4
COc1cc2nccc(Oc3ccc(NC(=O)N[C@H](C)c4ccc([N+](=O)[O-])cc4)cc3)c2cc1OC [Example 36, N-{4-[(6,7-Dimethoxy-4-quinolyl)oxy]phenyl}-N′-[(1R)-1-(4-nitrophenyl)ethyl]urea] | 31.1
COc1cccc([C@H](C)NC(=O)Nc2ccc(Oc3ccnc4cc(OC)c(OC)cc34)cc2)c1 [Example 49, N-{4-[(6,7-Dimethoxy-4-quinolyl)oxy]phenyl}-N′-[(1S)-1-(3-methoxyphenyl)ethyl]urea] | 3.2
COc1cc2nccc(Oc3ccc(NC(=O)N[C@@H](C)c4ccc(F)cc4)cc3)c2cc1OC [Example 2, N-{4-[(6,7-Dimethoxy-4-quinolyl)oxy]phenyl}-N′-[(1S)-1-(4-fluorophenyl)ethyl]urea] | 2.2
COc1cc2nccc(Oc3ccc(NC(=O)N[C@H](C)c4ccc(Cl)cc4)cc3)c2cc1OC [Example 48, N-[(1R)-1-(4-Chlorophenyl)ethyl]-N′-{4-[(6,7-dimethoxy-4-quinolyl)oxy]phenyl}urea] | 40
COc1cc2nccc(Oc3ccc(NC(=O)N[C@H](C)c4ccc(C)cc4)cc3)c2cc1OC [Example 42, N-{4-[(6,7-Dimethoxy-4-quinolyl)oxy]phenyl}-N′-[(1R)-1-(4-methylphenyl)ethyl]urea] | 38.5
COc1cc2nccc(Oc3ccc(NC(=O)N[C@@H](C)c4ccc(Cl)cc4)cc3)c2cc1OC [Example 47, N-[(1S)-1-(4-Chlorophenyl)ethyl]-N′-{4-[(6,7-dimethoxy-4-quinolyl)oxy]phenyl}urea] | 3.8
COc1cc2nccc(Oc3ccc(NC(=O)N[C@@H](C)c4ccc([N+](=O)[O-])cc4)cc3)c2cc1OC [Example 35, N-{4-[(6,7-Dimethoxy-4-quinolyl)oxy]phenyl}-N′-[(1S)-1-(4-nitrophenyl)ethyl]urea] | 12.1
